Assay results reported in ChEMBL document CHEMBL1201862, “PubChem BioAssay data set” (2004).
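Cultured in 96-well plates, cells were exposed to test compound for 48 hours across five concentrations. At the GI50, growth is halved.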 Active and inactive are the calls of the source. Rule as the data show it: active = GI50 up to about 1.1 µM and inactive = higher.

Tests used:
Assay in all cases: NCI tumour cell line growth inhibition, 48 h
A498 = system: A498
A549 = system: A549
ACHN = system: ACHN
BT-549 = system: BT-549
COLO 205 = system: COLO 205
EKVX = system: EKVX
HL-60 = system: HL-60
MDA-N = system: MDA-N
NCI/ADR-RES = system: NCI/ADR-RES
PC-3 = system: PC-3
SF-295 = system: SF-295
SF-539 = system: SF-539
SK-MEL-28 = system: SK-MEL-28
SK-OV-3 = system: SK-OV-3
SN12C = system: SN12C
SR = system: SR
UACC-257 = system: UACC-257
K562 = system: K562
NCI-H23 = system: NCI-H23

Compound	GI50 (A498)	GI50 (A549)	GI50 (ACHN)	GI50 (BT-549)	GI50 (COLO 205)	GI50 (EKVX)	GI50 (HL-60)	GI50 (MDA-N)	GI50 (NCI/ADR-RES)	GI50 (PC-3)	GI50 (SF-295)	GI50 (SF-539)	GI50 (SK-MEL-28)	GI50 (SK-OV-3)	GI50 (SN12C)	GI50 (SR)	GI50 (UACC-257)	GI50 (K562)	GI50 (NCI-H23)
FC(F)(F)c1ccc2c(c1)nc(-c1ccc(Cl)cc1)n2CC1CCCN2CCCCC12 (stereo not given)	14.2 µM (inactive)	14.8 µM (inactive)	14.8 µM (inactive)	14.4 µM (inactive)	11.6 µM (inactive)	9.91 µM (inactive)	11.8 µM (inactive)	15.7 µM (inactive)	14.8 µM (inactive)	11.6 µM (inactive)	16.7 µM (inactive)	14.8 µM (inactive)	14.9 µM (inactive)	6.7 µM (inactive)	12.9 µM (inactive)	11.9 µM (inactive)	14.9 µM (inactive)	–	–
C[C@]12CCC3=NCCN3C1=CC[C@@H]1[C@@H]2CC[C@@]2(C)[C@H]1CC[C@]2(C)O	26.9 µM (inactive)	> 100 µM (inactive)	> 100 µM (inactive)	44 µM (inactive)	25.8 µM (inactive)	96.4 µM (inactive)	–	61.9 µM (inactive)	> 100 µM (inactive)	62.5 µM (inactive)	20.7 µM (inactive)	22.2 µM (inactive)	28.8 µM (inactive)	> 100 µM (inactive)	> 100 µM (inactive)	38.8 µM (inactive)	24.4 µM (inactive)	34.7 µM (inactive)	59.6 µM (inactive)
COc1cc(C2CC(C)(N3CCCC3)Oc3cc4c(cc32)OCO4)cc(OC)c1OC (stereo not given)	0.578 µM (active)	0.462 µM (active)	0.69 µM (active)	0.794 µM (active)	2.9 µM (inactive)	0.456 µM (active)	0.13 µM (active)	0.0275 µM (active)	0.582 µM (active)	0.0889 µM (active)	0.0762 µM (active)	0.215 µM (active)	0.569 µM (active)	–	0.288 µM (active)	0.488 µM (active)	0.13 µM (active)	0.0371 µM (active)	–
O=C1OC(C2OC(=O)c3cc(O)c(O)c(O)c3-c3c(O)c(O)c4oc(=O)c5c(c(O)c(O)c6oc(=O)c3c4c65)-c3c(cc(O)c(O)c3O)C(=O)OCC2O)C2OC(=O)c3c(c(O)c(O)c(O)c3[C@H]2O)-c2c1cc(O)c(O)c2O (stereo not given in full)	> 100 µM (inactive)	20.2 µM (inactive)	24.7 µM (inactive)	24 µM (inactive)	14.8 µM (inactive)	13 µM (inactive)	13.7 µM (inactive)	21.2 µM (inactive)	21.8 µM (inactive)	36.4 µM (inactive)	16.6 µM (inactive)	–	98.2 µM (inactive)	59.7 µM (inactive)	15.9 µM (inactive)	15 µM (inactive)	32 µM (inactive)	19.2 µM (inactive)	16.6 µM (inactive)
Cc1cc2c(-c3ccccc3)cc(=O)[nH]c2cc1N	> 100 µM (inactive)	> 100 µM (inactive)	> 100 µM (inactive)	> 100 µM (inactive)	> 100 µM (inactive)	> 100 µM (inactive)	–	> 100 µM (inactive)	> 100 µM (inactive)	> 100 µM (inactive)	> 100 µM (inactive)	> 100 µM (inactive)	> 100 µM (inactive)	–	> 100 µM (inactive)	> 100 µM (inactive)	> 100 µM (inactive)	> 100 µM (inactive)	> 100 µM (inactive)
Cc1ccccc1OC(C)C(=O)NN1C(=O)CSC1c1ccccc1 (stereo not given)	34.3 µM (inactive)	42 µM (inactive)	60.5 µM (inactive)	> 100 µM (inactive)	> 100 µM (inactive)	83.2 µM (inactive)	–	53.2 µM (inactive)	72.8 µM (inactive)	> 100 µM (inactive)	56.2 µM (inactive)	> 100 µM (inactive)	> 100 µM (inactive)	> 100 µM (inactive)	> 100 µM (inactive)	10.2 µM (inactive)	45.2 µM (inactive)	14.7 µM (inactive)	53.2 µM (inactive)
CSc1nc(=O)cnn1C	–	> 100 µM (inactive)	> 100 µM (inactive)	> 100 µM (inactive)	> 100 µM (inactive)	> 100 µM (inactive)	–	> 100 µM (inactive)	> 100 µM (inactive)	> 100 µM (inactive)	> 100 µM (inactive)	–	> 100 µM (inactive)	> 100 µM (inactive)	> 100 µM (inactive)	> 100 µM (inactive)	> 100 µM (inactive)	> 100 µM (inactive)	> 100 µM (inactive)
CC[C@@H]1CC[C@@H]2[C@H](CC[C@]3(C)[C@@H](OC(C)=O)CC[C@@H]23)[C@H]1C(=O)OC	> 100 µM (inactive)	24.4 µM (inactive)	40 µM (inactive)	34.4 µM (inactive)	16 µM (inactive)	25.2 µM (inactive)	13.3 µM (inactive)	19.5 µM (inactive)	26.9 µM (inactive)	23.7 µM (inactive)	21 µM (inactive)	19.2 µM (inactive)	32.2 µM (inactive)	> 100 µM (inactive)	25.2 µM (inactive)	–	25.3 µM (inactive)	20 µM (inactive)	24.4 µM (inactive)
O=c1[nH]c(=S)c2cc3c(=S)[nH]c(=O)n(CCO)c3nc2n1CCO	> 100 µM (inactive)	> 100 µM (inactive)	> 100 µM (inactive)	> 100 µM (inactive)	> 100 µM (inactive)	> 100 µM (inactive)	–	> 100 µM (inactive)	> 100 µM (inactive)	> 100 µM (inactive)	> 100 µM (inactive)	> 100 µM (inactive)	> 100 µM (inactive)	> 100 µM (inactive)	> 100 µM (inactive)	> 100 µM (inactive)	> 100 µM (inactive)	> 100 µM (inactive)	> 100 µM (inactive)
Nc1cccc(OCc2nc(N)nc(N)c2-c2ccc(Cl)cc2)c1	39.4 µM (inactive)	35.8 µM (inactive)	44.3 µM (inactive)	36.1 µM (inactive)	18.6 µM (inactive)	52.8 µM (inactive)	23.8 µM (inactive)	42.1 µM (inactive)	44 µM (inactive)	41.3 µM (inactive)	64.1 µM (inactive)	–	70 µM (inactive)	89.1 µM (inactive)	51.3 µM (inactive)	36.7 µM (inactive)	41.1 µM (inactive)	23.9 µM (inactive)	43.2 µM (inactive)
O=C(O)CCC(=O)c1ccc[nH]1	> 100 µM (inactive)	> 100 µM (inactive)	> 100 µM (inactive)	> 100 µM (inactive)	> 100 µM (inactive)	> 100 µM (inactive)	–	> 100 µM (inactive)	> 100 µM (inactive)	> 100 µM (inactive)	> 100 µM (inactive)	> 100 µM (inactive)	–	> 100 µM (inactive)	6.56 µM (inactive)	> 100 µM (inactive)	94 µM (inactive)	> 100 µM (inactive)	> 100 µM (inactive)
CCCC(CCC(N)=O)(CCC(N)=O)[N+](=O)[O-]	–	> 100 µM (inactive)	> 100 µM (inactive)	> 100 µM (inactive)	> 100 µM (inactive)	> 100 µM (inactive)	> 100 µM (inactive)	> 100 µM (inactive)	> 100 µM (inactive)	> 100 µM (inactive)	> 100 µM (inactive)	> 100 µM (inactive)	–	> 100 µM (inactive)	> 100 µM (inactive)	> 100 µM (inactive)	> 100 µM (inactive)	> 100 µM (inactive)	> 100 µM (inactive)
C=CCOc1ccc(C2C(C(=O)OC)C(=O)CC(O)(c3ccccc3)C2C(=O)OC)cc1OC (stereo not given)	22.8 µM (inactive)	34.4 µM (inactive)	38.1 µM (inactive)	30.6 µM (inactive)	63.1 µM (inactive)	62.7 µM (inactive)	31.6 µM (inactive)	58.9 µM (inactive)	22.8 µM (inactive)	31.7 µM (inactive)	26.9 µM (inactive)	–	41 µM (inactive)	–	41.7 µM (inactive)	27.4 µM (inactive)	58.1 µM (inactive)	51.2 µM (inactive)	31.8 µM (inactive)
O=C(O)CCCCn1cnc2c(S)ncnc21	> 100 µM (inactive)	> 100 µM (inactive)	> 100 µM (inactive)	> 100 µM (inactive)	> 100 µM (inactive)	> 100 µM (inactive)	–	> 100 µM (inactive)	> 100 µM (inactive)	> 100 µM (inactive)	> 100 µM (inactive)	> 100 µM (inactive)	> 100 µM (inactive)	> 100 µM (inactive)	> 100 µM (inactive)	> 100 µM (inactive)	> 100 µM (inactive)	> 100 µM (inactive)	> 100 µM (inactive)
CNC(=O)N1CCN(C(=O)NC)CCN(C(=O)NC)CC1	> 100 µM (inactive)	> 100 µM (inactive)	> 100 µM (inactive)	> 100 µM (inactive)	> 100 µM (inactive)	> 100 µM (inactive)	> 100 µM (inactive)	> 100 µM (inactive)	> 100 µM (inactive)	> 100 µM (inactive)	> 100 µM (inactive)	–	> 100 µM (inactive)	> 100 µM (inactive)	> 100 µM (inactive)	> 100 µM (inactive)	> 100 µM (inactive)	> 100 µM (inactive)	> 100 µM (inactive)
CC(=O)C(C)(C)CCC(C)(C)C(C)=O	–	> 100 µM (inactive)	> 100 µM (inactive)	> 100 µM (inactive)	> 100 µM (inactive)	> 100 µM (inactive)	> 100 µM (inactive)	> 100 µM (inactive)	> 100 µM (inactive)	> 100 µM (inactive)	> 100 µM (inactive)	> 100 µM (inactive)	> 100 µM (inactive)	> 100 µM (inactive)	> 100 µM (inactive)	> 100 µM (inactive)	> 100 µM (inactive)	> 100 µM (inactive)	> 100 µM (inactive)
